Where a name gives a salt, the structure may show the parent alone.
Assays:
[1] = tested on: Charles River male albino mice; test: Writhing Assay (PBQ-induced writhing, analgesic activity); assay type: in vivo; details: Intragastric; for responders at 30 mg/kg / ED50: Mus musculus, po; for responders at 30 mg/kg: 25 min, read-out: number of mice out of nine or ten in which a test compound produced analgesia (converted); for ED50: PBQ writhing, mice, maximum likelihood function, read-out: calculated ED50 value (dose which produced analgesia in 50% of the mice)
Excerpt: The Writhing Assay is one of the most widely-used experimental procedures for measuring the analgesic activity of different narcotic and nonnarcotic analgesic agents, and involves the continuous, chemically-induced pain of visceral origin to an animal, such as a mouse or rat. [Gyires et al., Arch. int. Pharmacodyn, 267, 131-140 (1984); […] al., Fed. Proc., 15, 494 (1956); Koster et al., Fed. Proc., 18, 412 (1959); and Witken et al., J. Pharmacol. exp. Ther., 133, 400-408 (1961).] Chemicals which may be used to induce this pain include phenylbenzoquinone (PBQ) and acetic acid. As a result of the chemical irritation to the animal, a characteristic stretching and writhing of the animal (dorsiflexion of the animal's back, extension of its hindlimbs and the strong contraction of its abdominal musculature) will generally occur. […] Drugs which reduce the number of writhes of the animal appear to restore the normal nociceptive threshold of the animal. Charles River male albino mice, weighing 20 to 30 grams were used in this assay. Twenty-five minutes after intragastric administration to nine or ten mice of 30 mg per kilogram of body weight of a compound of the present invention ("test compound"), […] of body weight of a 0.025% w/v solution of PBQ was injected intraperitoneally into each mouse. Ten mice which were given saline in place of a test compound of the invention were used as a control group. Five minutes later, each mouse was individually placed into a glass beaker for observation, and the number of writhes occurring during the following ten-minute period was counted. A test compound was considered to have produced analgesia in a mouse if, in accordance with the conditions set forth above, and under the test criteria employed for this assay, after the administration of 30 mg per kilogram of body weight of a compound of the present invention to the mouse, the number of writhes elicited by a mouse injected with PBQ was equal to, or less than, one-half the median number of writhes recorded for the saline-treated control group of mice that day, as described by Taber in "Predictive Value of Analgesic Assays in Mice and Rats," Advances in Biochemical Psychopharmacology, 8, 191 (1974). […] If this initial screening dose of the test compound produced analgesia in seven of nine or ten mice, then the effect of additional doses of the test compound on the writhing response was evaluated, and then the ED50 value (that dose of a compound which produced analgesia in 50% of the mice to which the compound was administered) was generally calculated. A maximum likelihood function was used to determine the ED50 value. (The slopes of the dose-response curves for all test compounds analyzed were compared as described by Tallarida and Murray, Manual of Pharmacologic Calculations, Page 11 (Springer Verlag, New York, 1981)). The results for the particular compounds of the present invention analyzed in this assay, and discussed in the examples identified below which correspond thereto, are presented in Table 1 hereinbelow. The compounds of the present invention which were tested in this assay, and for which results are presented in Table 1, correspond to the particular examples specified in Table 1. The fractions indicate the number of mice out of nine or ten in which a test compound produced analgesia, and the whole numbers are the calculated ED50 values.

[2] = tested on: prostaglandin E2 -induced contractions of segments of guinea pig ileum; test: Prostaglandin (PGE) Antagonism Assay; assay type: cell-based; details: dose ratio of prostaglandin E2 EC50 doses with/without test compound, initial concentration 3 micromolar
Protocol: In order to determine the effectiveness of several of the compounds of the present invention ("test compounds") as prostaglandin E2 antagonists,a prostaglandin antagonism assay was conducted, as described below, to determine the ability of these compounds to inhibit prostaglandin E2 -induced contractions of segments of guinea pig ileum. […] Male albino guinea pigs weighing 200 to 500 grams were sacrificed by cervical dislocation. The ilea were then quickly removed from the guinea pigs and placed in a modified Tyrode solution, a solution which is known to those skilled in the art, containing one-half of the usual amount of magnesium ions. Segments of ileum about 2 cm long were then cut and mounted in a 10-mL tissue bath containing the modified Tyrode solution. The solution was maintained at 37° C. and aerated with a gaseous mixture of 95% oxygen and 5% carbon dioxide. Data for a control prostaglandin E2 dose response curve plotting concentration of prostaglandin E2 versus the intensity of contractions, detected isotonically, was then obtained by experimentally adjusting the dose of the prostaglandin E2 being injected into the tissue bath, in a manner known by those of skill in the art. Solutions or suspensions containing an initial concentration (3 micromolar) of a test compound in modified Tyrode solution ("test solutions/suspensions") were then separately substituted for the control bath solution. Each test solution/suspension was then kept in constant contact with the ileum tissue, except for brief periods to drain the bath in preparation for rinsing with fresh test solution/suspension. A second prostaglandin E2 dose response curve was then generated for prostaglandin E2 in the presence of a test compound. A dose ratio (DR) of EC50 doses was then calculated from the results of each test in a manner known by those of skill in the art. A control dose response curve (DRC) is produced in isolated segments of guinea pig ileum mounted in an automated apparatus with six concentrations of prostaglandin E2. A solution or suspension of test compound is substituted for the control bathing solution and is incubated for thirty minutes. An additional prostaglandin E2 dose response curve is produced in the presence of the test compound. A dose ratio is calculated from the EC50 values obtained from duplicate replications on each concentration of the test compound. […] The results of this prostaglandin antagonism assay are presented in Table 2 below in terms of their dose ratio. The compounds of the present invention which were tested in this assay, and for which results are presented in Table 2, correspond to the particular examples specified in Table 2.

[3] = 30 mg per kilogram of body weight 25 min before PBQ i.p., writhes equal to or less than one-half the control median

Molecule	number of mice out of nine or ten in which a test compound produced analgesia [1, 3]	responders at 30 mg/kg [1, 3] [%]	Dose Ratio [2]	ED50 [1] [mg/kg]
8-chloro-10,11-dihydro-10-[[4-(2-pyridinyl)-1-piperazinyl]carbonyl]dibenz[b,f][1,4]oxazepine, monohydrochloride [Example 11]	1/10	–	–	–
O=C(C1CCN(C(=O)N2Cc3ccccc3Oc3ccc(Cl)cc32)CC1)N(CCO)CCO [Example 3, 1-[(8-chlorodibenz[b,f][1,4]oxazepin-10(11H)yl)carbonyl]-N,N-bis(2-hydroxyethyl)-4-piperidinecarboxamide]	–	20	1.5	–
O=C(N1CCN2CCCCC2C1)N1Cc2ccccc2Oc2ccc(Cl)cc21 (stereo not shown) [Example 5, 8-chloro-10,11-dihydro-10-[(octahydro-2H-pyrido[1,2,-a]pyrazin-2-yl)carbonyl]dibenz[b,f][1,4]oxazepine hydrochloride]	–	40	2.4	–
Cl.O=C(N1CCN(Cc2ccccc2)CC1)N1Cc2ccccc2Oc2ccc(Cl)cc21 [Example 7, 8-chloro-10,11-dihydro-10-[[4-(phenylmethyl)-1-piperazinyl]carbonyl]dibenz[b,f][1,4]oxazepine, monohydrochloride]	–	–	5.1	6.8
CCCCN1CCN(C(=O)N2Cc3ccccc3Oc3ccc(Cl)cc32)CC1.Cl [Example 9, 10-[(4-butyl-1-piperazinyl)carbonyl]-8-chloro-10,11-dihydrodibenz[b,f][1,4]oxazepine, monohydrochloride]	–	–	1.4	9.7
Cl.O=C(N1CCC(N2CCCCC2)CC1)N1Cc2ccccc2Oc2ccc(Cl)cc21 [Example 13, 10-([1,4'-bipiperidin]-1'-ylcarbonyl)-8-chloro-10,11-dihydrodibenz[b,f][1,4]oxazepine, hydrochloride]	–	90	1.6	–
CCCCCCCCCCN1CCN(C(=O)N2Cc3ccccc3Oc3ccc(Cl)cc32)CC1.Cl [Example 15, 8-chloro-10-[(4-decyl-1-piperazinyl)carbonyl]-10,11-dihydrodibenz[b,f][1,4]oxazepine, monohydrochloride]	–	–	2.1	6.4
CCCN1CCN(C(=O)N2Cc3ccccc3Oc3ccc(Cl)cc32)CC1.Cl [Example 17, 8-chloro-10,11-dihydro-10-[(4-propyl-1-piperazinyl)carbonyl]dibenz[b,f][1,4]oxazepine, hydrochloride]	–	–	3.1	5.1
CCN1CCN(C(=O)N2Cc3ccccc3Oc3ccc(Cl)cc32)CC1.Cl [Example 19, 8-chloro-10-[(4-ethyl-1-piperazinyl)carbonyl]-10,11-dihydrodibenz[b,f][1,4]oxazepine, hydrochloride]	–	22.2	6.0	–
CC(C)(C)OC(=O)N1CCN(C(=O)N2Cc3ccccc3Oc3ccc(Cl)cc32)CC1 [Example 20, 1,1-dimethylethyl 4-[(8-chlorodibenz[b,f][1,4]oxazepin-10(11H)-yl)carbonyl]-1-piperazinecarboxylate]	–	40	8.0	–
CC(C)N1CCN(C(=O)N2Cc3ccccc3Oc3ccc(Cl)cc32)CC1.Cl [Example 22, 8-chloro-10,11-dihydro-10-[[4-(1-methylethyl]-1-piperazinyl]carbonyl]dibenz[b,f][1,4]oxazepine, hydrochloride]	–	30	3.0	–
CCCN1CCCN(C(=O)N2Cc3ccccc3Oc3ccc(Cl)cc32)CC1 [Example 24, monohydrochloride]	–	–	11.9	14.7
O=C(N1CCNCC1)N1Cc2ccccc2Oc2ccc(Cl)cc21 [Example 25, 8-chloro-10,11-dihydro-10-(1-piperazinylcarbonyl)dibenz[b,f][1,4]oxazepine, monohydrochloride]	–	50	1.6	–
Cl.O=C(c1ccncc1)N1CCN(C(=O)N2Cc3ccccc3Oc3ccc(Cl)cc32)CC1 [Example 29, 1-[(8-chlorodibenz[b,f][1,4]oxazepin-10(11H)-yl)carbonyl]-4-(4-pyridinylcarbonyl)piperazine, monohydrochloride]	–	50	2.2	–
O=C(N1CCC(N2CCCC2)CC1)N1Cc2ccccc2Oc2ccc(Cl)cc21 [Example 34, 8-chloro-10,11-dihydro-10-[[4-(1-pyrrolidinyl)-1-piperidinyl]carbonyl]dibenz[b,f][1,4]oxazepine]	–	70	–	–
Cl.O=C(N1CCC(N2CCCC2)CC1)N1Cc2ccccc2Oc2ccc(Cl)cc21 [Example 35, 8-chloro-10,11-dihydro-10-[[4-(1-pyrrolidinyl)-1-piperidinyl]carbonyl]dibenz[b,f][1,4]oxazepine, hydrochloride]	–	–	1.0	–
O=C(c1ccco1)N1CCN(C(=O)N2Cc3ccccc3Oc3ccc(Cl)cc32)CC1 [Example 38, 1-[(8-chlorodibenz[b,f][1,4]oxazepin-10(11H)-yl)carbonyl]-4-(2-furanylcarbonyl)piperazine]	–	10	–	–
O=C(N1Cc2ccccc2Oc2ccc(Cl)cc21)N1CCCCC1CCN1CCCC1 (stereo not shown) [Example 49, 8-chloro-10,11-dihydro-10-[[2-[2-(1-pyrrolidinyl)ethyl]-1-piperidinyl]carbonyl]dibenz[b,f][1,4]oxazepine, hydrochloride]	–	20	–	–
CCOC(=O)C1CN(C(=O)N2Cc3ccccc3Oc3ccc(Cl)cc32)CCN1c1ccccc1 (stereo not shown) [Example 50, ethyl 4-[(8-chlorodibenz[b,f][1,4]oxazepin-10(11H)-yl)carbonyl]-1-phenyl-2-piperazinecarboxylate]	–	–	2.7	–
O=C(Cc1ccncc1)N1CCN(C(=O)N2Cc3ccccc3Oc3ccc(Cl)cc32)CC1 [Example 79, 1-[(8-Chlorodibenz[b,f][1,4]oxozepin-10(11H)-yl)carbonyl]-4-[1-oxo-2(4-pyridinyl)-ethyl]piperazine, monohydrochloride, monohydrate]	–	–	10	–
Cl.O=C(Cc1ccncc1)N1CCCN(C(=O)N2Cc3ccccc3Oc3ccc(Cl)cc32)CC1 [Example 81, 1-[(8-chlorodibenz[b,f][1,4]oxazepin-10(11H)-yl)carbonyl]hexahydro-4-(4-pyridinylacetyl)-1H-1,4-diazepine, monohydrochloride]	–	–	32	–

Reference: US5354747A, “2-, 3-, 4-, 5-, 6-, 7-, 8-, 9- and/or 10-substituted dibenzoxazepine and dibenzthiazepine compounds, pharmaceutical compositions and methods of use” (G. D. Searle & Co., priority 1993, dated 1994)
